Measurements as given in PubChem BioAssay (NCI).
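48-hour exposure; five concentrations; linearly interpolated endpoints. At the GI50, growth is halved. TGI: concentration producing complete growth inhibition.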

Experiments:
Assay in all cases: DTP human tumour cell line panel, 48 h
UO-31 renal = test system: UO-31 renal
UACC-257 melanoma = test system: UACC-257 melanoma
COLO 205 colon = test system: COLO 205 colon
OVCAR-5 ovarian = test system: OVCAR-5 ovarian
SR leukemia = test system: SR leukemia
SF-539 CNS = test system: SF-539 CNS
HCT-116 colon = test system: HCT-116 colon
MDA-MB-435 = test system: MDA-MB-435
NCI-H522 lung = test system: NCI-H522 lung
BT-549 breast = test system: BT-549 breast

O=S(=O)(/N=S(/Nc1ccccc1)C(F)(F)Cl)c1ccccc1 (stereo unspecified)
TGI (UO-31 renal): > 100 µM | TGI (UACC-257 melanoma): > 100 µM | TGI (COLO 205 colon): > 100 µM | TGI (OVCAR-5 ovarian): > 100 µM | TGI (SR leukemia): > 100 µM | TGI (SF-539 CNS): > 100 µM | TGI (HCT-116 colon): > 100 µM | TGI (MDA-MB-435): > 100 µM

COc1ccc(-c2cc3ccccc3[nH]c2=O)cc1OC
TGI (NCI-H522 lung): > 100 µM | TGI (UO-31 renal): > 100 µM | TGI (UACC-257 melanoma): > 100 µM | TGI (COLO 205 colon): > 100 µM | TGI (OVCAR-5 ovarian): > 100 µM | TGI (SR leukemia): > 100 µM | TGI (SF-539 CNS): > 100 µM | TGI (HCT-116 colon): > 100 µM

O=C1CC(C2(O)C(=O)Nc3ccc([N+](=O)[O-])cc32)c2ccccc21 (stereo unspecified)
TGI (NCI-H522 lung): 26.3 µM | TGI (UO-31 renal): > 100 µM | TGI (UACC-257 melanoma): > 100 µM | TGI (COLO 205 colon): 71.6 µM | TGI (OVCAR-5 ovarian): > 100 µM | TGI (SR leukemia): 46.6 µM | TGI (SF-539 CNS): 64.1 µM | TGI (HCT-116 colon): > 100 µM

CN1CCC(c2c(O)cc(O)c3c(=O)cc(-c4ccccc4Cl)oc23)C(O)C1 (stereo unspecified)
TGI (NCI-H522 lung): 0.448 µM | TGI (UO-31 renal): > 100 µM | TGI (COLO 205 colon): 0.255 µM | GI50 (OVCAR-5 ovarian): 0.0687 µM | TGI (OVCAR-5 ovarian): 0.602 µM | GI50 (SF-539 CNS): 0.288 µM | TGI (SF-539 CNS): > 100 µM

CC(C)(C)c1ccc(C2CC(=O)C3=C(C2)Nc2ccccc2N(C(=O)c2ccccc2Cl)C3c2ccc(F)cc2)cc1 (stereo unspecified)
GI50 (UO-31 renal): > 100 µM | TGI (UO-31 renal): > 100 µM | GI50 (UACC-257 melanoma): > 100 µM | TGI (UACC-257 melanoma): > 100 µM | GI50 (COLO 205 colon): > 100 µM | TGI (COLO 205 colon): > 100 µM | GI50 (OVCAR-5 ovarian): > 100 µM | TGI (OVCAR-5 ovarian): > 100 µM | GI50 (BT-549 breast): > 100 µM | TGI (BT-549 breast): > 100 µM | GI50 (SF-539 CNS): > 100 µM | TGI (SF-539 CNS): > 100 µM | GI50 (HCT-116 colon): > 100 µM | TGI (HCT-116 colon): > 100 µM | GI50 (MDA-MB-435): > 100 µM | TGI (MDA-MB-435): > 100 µM

COc1cc(OC)c2c(=O)cc(-c3ccccc3OCc3ccccc3)oc2c1OC
GI50 (NCI-H522 lung): 50.7 µM | TGI (NCI-H522 lung): > 100 µM | GI50 (UO-31 renal): > 100 µM | TGI (UO-31 renal): > 100 µM | GI50 (UACC-257 melanoma): 6.05 µM | TGI (UACC-257 melanoma): 82.1 µM | GI50 (OVCAR-5 ovarian): 18 µM | TGI (OVCAR-5 ovarian): 84.3 µM | GI50 (BT-549 breast): 3.76 µM | TGI (BT-549 breast): 24.6 µM | GI50 (SF-539 CNS): 12.4 µM | TGI (SF-539 CNS): 40 µM | GI50 (HCT-116 colon): 9.22 µM | TGI (HCT-116 colon): 50.5 µM | GI50 (MDA-MB-435): 2.68 µM | TGI (MDA-MB-435): 7.01 µM

CC1=NN(c2ccccc2)C(=O)C12[C@H](c1ccccc1)C2(C#N)C#N (stereo partly specified)
TGI (NCI-H522 lung): 11.5 µM | TGI (UO-31 renal): 27.9 µM | TGI (UACC-257 melanoma): 18.4 µM | TGI (COLO 205 colon): 4.42 µM | TGI (OVCAR-5 ovarian): 24.2 µM | TGI (SF-539 CNS): 27.7 µM | TGI (HCT-116 colon): 12 µM

COc1cc(Cc2c(C)cc(OC)c3[nH]c4ccccc4c23)cc2c1[nH]c1ccccc12
GI50 (NCI-H522 lung): 5.03 µM | TGI (NCI-H522 lung): 11.6 µM | GI50 (UO-31 renal): 6.05 µM | TGI (UO-31 renal): 18.6 µM | GI50 (COLO 205 colon): 12 µM | TGI (COLO 205 colon): > 25 µM | TGI (OVCAR-5 ovarian): 12.5 µM | GI50 (SR leukemia): 7.77 µM | TGI (SR leukemia): > 25 µM | GI50 (SF-539 CNS): 4.61 µM | TGI (SF-539 CNS): 9.23 µM | GI50 (HCT-116 colon): 9.18 µM | TGI (HCT-116 colon): > 25 µM

COc1cc(C2c3cc4c(cc3OC(O)C2C)OCO4)cc(OC)c1OC (stereo unspecified)
TGI (NCI-H522 lung): 0.713 µM | TGI (UO-31 renal): 40.7 µM | TGI (UACC-257 melanoma): > 100 µM | TGI (OVCAR-5 ovarian): > 100 µM | TGI (BT-549 breast): > 59.2 µM | TGI (SF-539 CNS): 0.92 µM | TGI (HCT-116 colon): > 69.9 µM | TGI (MDA-MB-435): 0.156 µM

CCOC(=O)c1sc2c(C(=O)OCC)n3cc(C)cc(C)c3c2c1O
TGI (NCI-H522 lung): > 100 µM | TGI (UO-31 renal): > 100 µM | TGI (COLO 205 colon): > 100 µM | TGI (OVCAR-5 ovarian): > 100 µM | TGI (SR leukemia): > 100 µM | TGI (SF-539 CNS): > 100 µM | TGI (HCT-116 colon): > 100 µM

O=C(O)c1c2c(cc3c(=O)c4ccccc4[nH]c13)CCCC2
TGI (UO-31 renal): > 100 µM | TGI (UACC-257 melanoma): > 100 µM | TGI (COLO 205 colon): > 100 µM | TGI (OVCAR-5 ovarian): > 100 µM | TGI (SR leukemia): > 100 µM | TGI (SF-539 CNS): > 100 µM | TGI (HCT-116 colon): > 100 µM

CC(=O)OCC1OC(n2c(=O)[nH]c(=O)c3n[nH]nc32)C(OC(C)=O)C(OC(C)=O)C1OC(C)=O (stereo unspecified)
TGI (NCI-H522 lung): > 100 µM | TGI (UO-31 renal): > 100 µM | TGI (UACC-257 melanoma): > 100 µM | TGI (COLO 205 colon): > 100 µM | TGI (OVCAR-5 ovarian): > 100 µM | TGI (SR leukemia): > 100 µM | TGI (HCT-116 colon): > 100 µM

Cc1cc(=O)[nH]c(NNC(C#N)c2ccccc2O)n1 (stereo unspecified)
TGI (NCI-H522 lung): > 100 µM | TGI (UO-31 renal): 56.8 µM | TGI (UACC-257 melanoma): > 100 µM | TGI (COLO 205 colon): > 100 µM | TGI (OVCAR-5 ovarian): > 100 µM | TGI (SR leukemia): > 100 µM | TGI (SF-539 CNS): > 100 µM | TGI (HCT-116 colon): > 100 µM

Cc1cc(Cl)cc2c1NC(=O)C2(O)CC(=O)c1ccc(Br)cc1 (stereo unspecified)
TGI (NCI-H522 lung): > 100 µM | TGI (UO-31 renal): > 100 µM | TGI (UACC-257 melanoma): > 100 µM | TGI (COLO 205 colon): > 100 µM | TGI (OVCAR-5 ovarian): > 100 µM | TGI (SF-539 CNS): > 100 µM | TGI (HCT-116 colon): > 100 µM

CC(C)N(C(=O)C12C3C4C5(C(=O)O)C(C1C35I)C42C(=O)O)C(C)C (stereo unspecified)
TGI (NCI-H522 lung): > 100 µM | TGI (UO-31 renal): > 100 µM | TGI (UACC-257 melanoma): > 100 µM | TGI (COLO 205 colon): > 100 µM | TGI (OVCAR-5 ovarian): > 100 µM | TGI (SR leukemia): > 100 µM | TGI (SF-539 CNS): > 100 µM | TGI (HCT-116 colon): > 100 µM

Brc1cc(C2OCCCO2)ccc1OCc1ccccc1
TGI (NCI-H522 lung): > 100 µM | TGI (UO-31 renal): > 100 µM | TGI (UACC-257 melanoma): > 100 µM | TGI (COLO 205 colon): 56.9 µM | TGI (OVCAR-5 ovarian): 92.5 µM | TGI (SF-539 CNS): > 100 µM
